# Experiments:
# [1] = tested on: TCRP1A CD8^+ T cells, Treg cells and PMN-MDSCs infiltrating TiRP tumors; experiment: FACS analysis of tumor-infiltrating cells in TiRP-tumor bearing mice after adoptive cell transfer (ACT); assay type: in vivo; conditions: for tumor infiltration of the transferred TCRP1A CD8+ T cells / survival of the transferred TCRP1A CD8+ T cells (apoptosis, annexin V): 14 days after ACT, CTX 100 mg/kg one day before ACT and/or metformin 0.5 mg/ml drinking water; for tumor infiltration of the transferred TCRP1A CD8+ T cells: FIG. 3A; for survival of the transferred TCRP1A CD8+ T cells (apoptosis, annexin V): FIG. 3B
# Description: (§1) TiRP mice have been created by crossing Ink4a/Arf^flox/flox mice with mice carrying a transgenic construct controlled by the tyrosinase promoter and driving the expression of H-Ras^12V and Trap 1 a which encodes a MAGE-type tumor antigen P1A; the promoter is separated from the coding region by a stop cassette made of a floxed self-deleting CreER (Huijbers et al., 2006, Cancer Res 66, 3278-3286). Those mice were backcrossed to a B10.D2 background and bred to homozygosity. TCRP1A mice heterozygous for the H-2Ld/P1A35-43-specific TCR transgene were kept on the B10.D2;Rag1^−/− background (Shanker et al., 2004, J Immunol 172, 5069-5077).
# (§2) A fresh solution of 4OH-Tamoxifen was prepared by dissolving 4OH-Tamoxifen (Imaginechem) in 100% ethanol and mineral oil (ratio 1:9) followed by 30-min sonication, and injected subcutaneously (2 mg/200 μl per mouse) in the neck area of gender-matched 7 weeks old TiRP mice. Tumor appearance was monitored daily and tumors were measured three times/week. Tumor volume (in mm^3) was calculated by the following formula: Volume=width^2×length×π/6. Tumor-bearing TiRP mice were randomized based on the tumor size when average volume was 500 mm^3 and treated as indicated. For cyclophosphamide (CTX, Sigma C7397) treatment, mice received an intra-peritoneal injection of CTX at 100 mg/kg or vehicle (PBS) 24 h before adoptive cell transfer. For metformin treatment, metformin (Enzo, ALX-270-432) was dissolved in mice drinking water at a concentration of 0.5 mg/ml and administered to the mice from the moment of adoptive cell transfer until the end of the experiment; the solution was replaced three times/week.
# (§3) For the adoptive cell transfer (ACT), P1A-specific (TCRP1A) CD8^+ T cells were isolated from spleens and lymph nodes of TCRP1A mice using anti-mouse CD8α (Ly-2) MicroBeads (Miltenyi Biotec), and stimulated in vitro by co-culture with irradiated (10.000 rads) L1210.P1A.B7-1 cells (Gajewski et al., 1995, J Immunol 154, 5637-5648) at 1:2 ratio (0.5×10^5 CD8^+ T cells and 10^5 L1210.P1A.B7-1 cells per well in 48-well plates) in IMDM (GIBCO) containing 10% fetal bovine serum supplemented with L-arginine (0.55 mM, Merck), L-asparagine (0.24 mM, Merck), glutamine (1.5 mM, Merck), betamercaptoethanol (50 μM, Sigma), 50 Uml^−1 penicillin and […] streptomycin (Life Technologies). Four days later, TCRP1A CD8^+ T cells were purified on a Lymphoprep gradient (StemCell) and 10^7 living cells were injected intravenously in 200 μl PBS in TiRP-tumor bearing mice.
# For hypoxia detection, mice received an intraperitoneal injection of pimonidazole hydrochloride at 60 mg/kg (Hypoxyprobe) 45 minutes before tumor harvesting. Tumor single cell suspension was prepared using gentleMACS Dissociator and incubating the tissue in RMPI containing 0.04% collagenase I, 0.04% collagenase II and 0.05% dispase (all from GIBCO) for 1 hour at 37° C. After passing the cell suspension through a 70 μm- and 40 μm-cell strainer, red blood cell lysis was performed (eBioscience, 00-4300-54). Tumor cell preparation was stained with the Viability dye eFluor780 (eBioscience, 1:1000) to identify dead cells during the FACS analysis, and then incubated with Mouse BD Fc Block (BD, clone 2.4G2, 1:100) in PBS supplemented with 2% FBS and 2 mM EDTA. TCRP1A CD8^+ T cells were labeled by using H-2L^d PIA tetramer-PE (1 μM, produced in-house at the Ludwig Institute for Cancer Research) and anti-CD8α BV-421 (BioLegend, 53-6.7, 1:200); for apoptosis quantification, Annexin V APC (BioLegend, 1:20) was used. Hypoxic cells were identified with the anti-pimonidazole antibody (Hypoxyprobe, HP-FITC-Mab 4.3.11.3, 1:100) after cell fixation and permeabilization according to manufacturer's instructions (eBioscience Transcription Factor Staining Buffer Set).
# MC38 colon carcinoma = MC38 colon carcinoma tumor rejection with anti-PD-1 antibody; assay type: in vivo, mice; conditions: MC38, 16 days after treatment, associated with the PD-1 inhibitor; FIG. 9B-D
# Description: (§4) Gender and age matched […] wild-type mice were used for the experiments with checkpoint inhibitors.
# (§5) For the experiments with checkpoint inhibitors, gender matched, 7-9 weeks old […] wild-type mice were subcutaneously injected with 1 million of B16F1 or MC38 tumor cells. Mice were randomized based on the tumor size one week after the injection of tumor cells (B16F1 melanoma model) or when the average tumor size was between 90 and 120 mm^3 (MC38 colon carcinoma model). Tumor-bearing mice were then treated with CTX or PBS as described above. One day after, metformin was prepared as mentioned above and added to the mice drinking water until the end of the experiment. A dose of 100 μg/mouse of anti-PD-1 antibody (clone RMP1-14, Bio-X-Cell) or RatIgG2a isotype (clone 2A3, Bio-X-Cell) was injected intraperitoneally three times (B16F1 model) or four times (MC38 model) every three or four days starting from the day after CTX or PBS treatment.
# B16F1 melanoma tumors = experiment: B16F1 melanoma tumor growth with anti-PD-1 antibody or isotype control; assay type: in vivo, mice; conditions: FIG. 8A; for growth of B16F1 melanoma tumors, single treatment: B6 mice
# Description: as §4, §5
# [2] = tested on: TiRP mice (genetically engineered mouse melanoma model); experiment: Tumor growth, tumor weight and survival of TiRP mice with or without ACT; assay type: in vivo; conditions: for tumor response to the immunotherapy (tumor growth) / tumor growth and tumor weight 14 days after ACT / tumor growth in the presence of ACT: TiRP mice with ACT; for tumor response to the immunotherapy (tumor growth): up to 22 days after ACT, FIG. 6A; for tumor growth and tumor weight 14 days after ACT: CTX 100 mg/kg the day before ACT and/or metformin 0.5 mg/ml for 14 days, FIG. 5; for tumor growth in the presence of ACT / tumor growth in absence of ACT: FIG. 7; for tumor growth in absence of ACT: TiRP mice without ACT
# Description: as §1, §2, §3
# Data entry and all analyses were performed in a blinded fashion. All statistical analyses were performed using GraphPad Prism software. Statistical significance was calculated by two-tailed unpaired t-test on two experimental conditions or two-way analysis of variance (ANOVA) when repeated measures were compared, with p<0.05 considered statistically significant. Independent experiments were pooled and analyzed together whenever possible. All graphs show mean values±s.e.m.
SMILES,"tumor infiltration of Treg cells ([1]; 4 days after ACT, single injection of CTX 100 mg/kg one day before ACT, FIG. 2A)","tumor infiltration of PMN-MDSCs ([1]; 4 days after ACT, single injection of CTX 100 mg/kg one day before ACT, FIG. 2B)",tumor infiltration of the transferred TCRP1A CD8+ T cells [1],"survival of the transferred TCRP1A CD8+ T cells (apoptosis, annexin V) [1]",mice that had rejected the tumor (MC38 colon carcinoma) [%],"growth of B16F1 melanoma tumors, single treatment (B16F1 melanoma tumors)",tumor response to the immunotherapy (tumor growth) [2],tumor growth and tumor weight 14 days after ACT [2],tumor growth in the presence of ACT [2],tumor growth in absence of ACT [2],"infiltration of TCRP1A CD8^+ T cells in the tumor ([1]; 4 days after ACT, metformin 0.5 mg/ml in drinking water from ACT, vs vehicle, FIG. 1A)","recruitment of TCRP1A CD8^+ T cells to the hypoxic regions of the tumor ([1]; 4 days after ACT, metformin 0.5 mg/ml in drinking water, pimonidazole-positive, FIG. 1B)","tumor response to the PD-1 inhibitor (B16F1 melanoma tumors; B16F1, associated with anti-PD-1 antibody 100 μg on day 0, 3, 7, C, D)"
"O=P1(N(CCCl)CCCl)NCCCO1 (stereo not drawn) [cyclophosphamide, 2-[bis(2-chloroethyl)amino]-1,3,2λ^5-oxazaphosphinan-2-one]",reduced,reduced,increase,increase,40,induced per se a significant tumor response,did induce a significant tumor response,allowed an inhibition of the tumor growth,tumor response was improved by the immunotherapy,significantly reduced tumor growth,–,–,–
"CN(C)C(=N)N=C(N)N [metformin, 3-(diaminomethylidene)-1,1-dimethylguanidine]",–,–,increased tumor infiltration,increased survival,20,not significantly affected,did not seem to induce a significant tumor response,seemed to partially reduce tumor growth,did not inhibit tumor growth,did not inhibit tumor growth,significantly increased,allowed the recruitment,did not seem to induce a significant tumor response
